Results on three compounds are retold here after ChEMBL document CHEMBL1146849, “Identification of a lead pharmacophore for the development of potent nuclear receptor modulators as anticancer and X syndrome disease therapeutic agents” (Bioorg Med Chem Lett, 2006).

Active and inactive are the calls of the source. No cut-off for these calls is given here.

Assay [1] has as its system Androgen receptor (Homo sapiens), P10275 [T878A]. As to the kind of experiment: Agonist activity at human androgen receptor T877A mutant relative to control. The assay is classed as functional.
For assay [2], the target named is T1, Bile acid receptor (Homo sapiens) (UniProt Q96RI1).
T1 sequence (whole entry): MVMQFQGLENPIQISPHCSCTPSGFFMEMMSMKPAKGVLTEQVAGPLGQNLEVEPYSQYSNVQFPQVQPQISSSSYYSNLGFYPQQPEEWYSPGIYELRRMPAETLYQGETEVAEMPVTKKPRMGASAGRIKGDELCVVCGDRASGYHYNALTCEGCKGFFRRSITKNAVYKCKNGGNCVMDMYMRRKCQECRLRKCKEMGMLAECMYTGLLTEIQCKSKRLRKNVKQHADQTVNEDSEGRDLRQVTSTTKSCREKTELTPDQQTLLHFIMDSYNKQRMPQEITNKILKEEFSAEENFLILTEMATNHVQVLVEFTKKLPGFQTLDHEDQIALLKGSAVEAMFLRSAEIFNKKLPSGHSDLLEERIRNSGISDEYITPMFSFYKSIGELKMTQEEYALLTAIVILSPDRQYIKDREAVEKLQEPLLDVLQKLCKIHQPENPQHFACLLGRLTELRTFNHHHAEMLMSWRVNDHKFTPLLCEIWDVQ
Description: Agonist activity at FXR in HepG2 cells by luciferase activity relative to CDCA at 10 uM. Type of assay: functional, cell-based.

Androgen receptor (Homo sapiens), P10275 [T878A], sequence (P10275 whole entry T878A): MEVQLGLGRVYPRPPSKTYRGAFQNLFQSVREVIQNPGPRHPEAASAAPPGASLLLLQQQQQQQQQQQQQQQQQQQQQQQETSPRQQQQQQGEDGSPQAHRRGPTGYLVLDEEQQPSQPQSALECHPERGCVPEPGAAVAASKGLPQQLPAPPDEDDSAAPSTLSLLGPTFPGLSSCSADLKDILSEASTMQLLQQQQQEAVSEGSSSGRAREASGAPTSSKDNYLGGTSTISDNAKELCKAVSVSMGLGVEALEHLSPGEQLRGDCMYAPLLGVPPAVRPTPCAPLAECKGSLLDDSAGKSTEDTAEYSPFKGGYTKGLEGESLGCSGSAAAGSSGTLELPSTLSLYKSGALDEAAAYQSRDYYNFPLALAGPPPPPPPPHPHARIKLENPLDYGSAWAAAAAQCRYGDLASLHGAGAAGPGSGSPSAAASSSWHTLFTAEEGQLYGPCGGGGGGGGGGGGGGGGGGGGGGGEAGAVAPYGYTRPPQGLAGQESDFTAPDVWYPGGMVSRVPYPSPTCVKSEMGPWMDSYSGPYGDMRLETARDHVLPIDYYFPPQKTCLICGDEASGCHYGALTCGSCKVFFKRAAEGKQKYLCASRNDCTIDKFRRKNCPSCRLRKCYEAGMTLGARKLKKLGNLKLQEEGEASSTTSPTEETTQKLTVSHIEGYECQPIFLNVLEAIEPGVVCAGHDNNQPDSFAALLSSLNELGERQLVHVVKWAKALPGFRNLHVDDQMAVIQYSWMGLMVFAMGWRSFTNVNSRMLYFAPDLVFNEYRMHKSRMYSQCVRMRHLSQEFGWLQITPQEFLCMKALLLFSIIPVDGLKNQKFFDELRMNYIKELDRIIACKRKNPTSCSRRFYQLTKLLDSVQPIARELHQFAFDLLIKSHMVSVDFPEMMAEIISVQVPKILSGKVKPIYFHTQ

Take `Cc1cc(C)cc(C(=O)N2Cc3ccccc3C[C@H]2CO)c1`: the outcome in assay [1] was inactive.
Take `Cc1ccc(C(=O)N2Cc3ccccc3C[C@H]2CO)cc1F`: the outcome in assay [2] was Active.
Regarding `O=C(c1ccc(C(O)(C(F)(F)F)C(F)(F)F)cc1)N1Cc2ccccc2C[C@H]1CO`, the result in assay [1] was inactive.
